# Experiments:
# [1] = system: H1 human embryonic stem cells; experiment: Screen of CDK, GSK3 and TRK inhibitors with or without GDF-8, SOX17 and cell number (Example 20, Table 17); type: cell-based; settings: Plate 1; for Cell Number, % of positive control / Sox17 Expression, % of positive control: positive control = Activin A/Wnt3a
# Method: Briefly, clusters of H1 human embryonic stem cells were grown on reduced growth factor Matrigel™ (Invitrogen; Cat #356231) coated tissue culture plastic. Cells were passaged using collagenase (Invitrogen; Cat #17104-019) treatment and gentle scraping, washed to remove residual enzyme, and plated with even dispersal at a ratio of 1:1 (surface area) on reduced growth factor […]™ (BD Biosciences; Cat #356231)-coated 96-well black plates (Packard ViewPlates; PerkinElmer; Cat #6005182) using volumes of 100 μl/well. Cells were allowed to attach and then recover log phase growth over a 1 to 3 day time period, feeding daily with MEF conditioned medium supplemented with 8 ng/ml bFGF (R&D Systems; Cat #233-FB). Plates were maintained at 37° C., 5% CO2 in a humidified box throughout the duration of assay.
# Screening was conducted using the compounds described in Table 16. […] Compounds were made available as 5 mM stocks in 96-well plate format, solubilized in 100% DMSO (Sigma; Cat #D2650) and stored at −80° C. The library compounds were further diluted to an intermediate concentration of 0.2 mM in 50 mM HEPES (Invitrogen; Cat #15630-080), 20% DMSO and stored at 4° C. Test conditions were performed in triplicate, feeding on alternating days over a four-day assay period. Assay was initiated by aspirating culture medium from each well followed by three washes in PBS (Invitrogen; Cat #14190) to remove residual growth factors. On the first day of assay, test volumes of 200 μl per well were added to each well using DMEM:F12 base medium (Invitrogen; Cat #11330-032) supplemented with 0.5% FCS (HyClone; Cat #SH30070.03) and 100 ng/ml GDF-8 (R&D Systems, Cat #788-G8) plus 2.5 μM compound. A parallel set of test samples were treated in an identical manner but omitting GDF-8 from the medium. On the third day of assay, test volumes of 100 μper well were added to each well using DMEM:F12 base medium supplemented with 2% FCS plus 100 ng/ml GDF-8 (R&D Systems, Cat #788-G8). […] Positive control samples contained the same base medium supplemented with FCS and 100 ng/ml recombinant human activin A (PeproTech; Cat #120-14) throughout the four day assay along with Wnt3a (20 ng/ml) addition on days 1 and 2. Negative control samples contained DMEM:F12 base medium supplemented with FCS.
# At the conclusion of four-days of culture, assay plates were washed twice with PBS (Invitrogen; Cat #14190), fixed with 4% paraformaldehyde (Alexis Biochemical; Cat #ALX-350-011) at room temperature for 20 minutes, then washed three times with PBS and permeabilized with 0.5% Triton X-100 (Sigma; Cat #T8760-2) for 20 minutes at room temperature. Cells were washed again three times with PBS and blocked with 4% chicken serum (Invitrogen; Cat #16110082) in PBS for 30 minutes at room temperature. Primary antibody (goat anti-human SOX17; R&D Systems; Cat #AF1924) was diluted 1:100 in 4% chicken serum and added to each well for one hour at room temperature. Alexa Fluor 488 conjugated secondary antibody (chicken anti-goat IgG; Molecular Probes; Cat #AZ1467) was diluted 1:200 in PBS and added to each sample well after washing three times with PBS. To counterstain nuclei, 4 μg/ml Hoechst 33342 (Invitrogen; Cat #H3570) was added for ten minutes at room temperature. Plates were washed once with PBS and left in 100 μl/well PBS for imaging.
# Imaging was performed using an IN Cell Analyzer 1000 (GE Healthcare) utilizing the 51008bs dichroic for cells stained with Hoechst 33342 and Alexa Fluor 488. Exposure times were optimized from positive control wells and from untreated negative control wells stained with secondary antibody alone. Images from 15 fields per well were acquired to compensate for any cell loss during the bioassay and subsequent staining procedures. Measurements for total cell number and total SOX17 intensity were obtained from each well using IN Cell Developer Toolbox 1.7 (GE Healthcare) software. […]
# [2] = system: CDK, GSK3, and/or TRK signaling pathways; experiment: Primary selectivity of the proprietary small molecules (Table 16); settings: as listed in Table 17
# Method: A subset of 14 proprietary small molecules, known to have specificity for the CDK, GSK3, and/or TRK signaling pathways were evaluated for their potential to differentiate human embryonic stem cells to cells expressing markers characteristic of the definitive endoderm lineage.
# [3] = system: H1 human embryonic stem cells; experiment: Definitive endoderm formation with GDF family members, SOX17 and cell number (Example 13); type: cell-based
# Method: Stock cultures of human embryonic stem cells (H1 human embryonic stem cell line) were maintained in an undifferentiated, pluripotent state on reduced growth factor […]™ (BD Biosciences; Cat #356231)-coated dishes in MEF conditioned medium with passage on average every four days. Passage was performed by exposing cell cultures to a solution of 1 mg/ml dispase (Invitrogen; Cat #17105-041) for 5 to 7 minutes at 37° C. followed by rinsing the monolayer with MEF conditioned culture medium and gentle scraping to recover cell clusters. Clusters were centrifuged at low speed to collect a cell pellet and remove residual dispase. Cell clusters were split at a 1:3 or 1:4 ratio for routine maintenance culture or a 1:1 ratio for immediate assay. All human ES cell lines were maintained at passage numbers less than 50 and routinely evaluated for normal karyotype and absence of mycoplasma.
# Cell clusters were evenly resuspended in MEF conditioned medium supplemented with 8 ng/ml bFGF and seeded onto reduced growth factor […]™-coated 96-well Packard VIEWPLATES (PerkinElmer; Cat #6005182) in volumes of 0.1 ml/well. Daily feeding was conducted by aspirating spent culture medium from each well and replacing with an equal volume of fresh medium. Plates were maintained at 37° C., 5% CO2 throughout the duration of assay.
# The assay was initiated by aspirating the culture medium from each well and adding back aliquots (100 μl) of test medium. Test conditions were performed in triplicate over a total four-day assay period, feeding on day 1 and day 3 by aspirating and replacing the medium from each well with fresh test medium. Various members of the GDF family of proteins were obtained for testing as follows: GDF-3 (PeproTech; Cat #120-22); GDF-5 (DePuy Orthopaedics, Inc., a Johnson & Johnson company); GDF-8 (R&D Systems; Cat #788-G8); GDF-10 (R&D Systems; Cat #1543-BP); GDF11 (PeproTech; Cat #120-11); GDF-15 (R&D Systems; Cat #957-GD). On the first day of assay, all wells received an aliquot (80 μl) of basal medium DMEM:F12 medium (Invitrogen; Cat #11330-032) supplemented with 0.5% fetal bovine serum (Hyclone; Cat #SH30070.03). A series of five different control or experimental test samples was created to evaluate activin A or various GDFs in combination with Wnt3a or Compound 34 or Compound 56. These test samples were added in 20 μl aliquots (5× concentrated) to appropriately matched assay wells to yield a final assay volume of 100 μl in each well at the final assay conditions indicated. In the first set of control samples, the following conditions were tested: 1) no additive (i.e. no supplementary growth factor or small molecule); 2) 100 ng/ml activin A (PeproTech; Cat #120-14) in combination with 20 ng/ml Wnt3a (R&D Systems; Cat #1324-WN/CF); 3) 20 ng/ml Wnt3a alone; 4) Compound 34 alone (2.5 μM) without any growth factor or small molecule; 5) Compound 56 alone (2.5 μM) without any growth factor or small molecule. In the second set of test samples, the following conditions were tested in combination with 100 ng/ml GDF3: 1) no additive (i.e. GDF-3 alone); 2) 20 ng/ml Wnt3a; 3) 20 ng/ml Wnt3a with Compound 34 (2.5 μM); 4) Compound 34 (2.5 μM); 5) Compound 56 (2.5 μM); and 6) 20 ng/ml Wnt3a with Compound 56 (2.5 μM). In the third set of test samples, each of the six conditions was combined with 100 ng/ml GDF-5. In the fourth set of test samples, each of the six conditions was combined with 100 ng/ml GDF-8. In the fifth set of test samples, each of the six conditions was combined with 100 ng/ml GDF-10. In the sixth set of test samples, each of the six conditions was combined with 100 ng/ml GDF-11. In the seventh set of test samples, each of the six conditions was combined with 100 ng/ml GDF-15. On the third day of assay, all wells for all test samples, received 100 ng/ml Activin A or 100 ng/ml respective GDF growth factor, without Wnt3a or Compound 34 or Compound 56, diluted into DMEM:F12 medium supplemented with 2% FBS. […]
# [4] = compound in combination with GDF8
Molecule,"Cell Number, Average Total Cell Number ([1]; compound alone, No GDF8)","Sox17 Expression, Average Total Intensity ([1]; compound alone, No GDF8)","Cell Number, % of positive control ([1]; compound alone, No GDF8)","Sox17 Expression, % of positive control ([1]; compound alone, No GDF8)","Cell Number, Average Total Cell Number [1, 4]","Sox17 Expression, Average Total Intensity [1, 4]","Cell Number, % of positive control [1, 4]","Sox17 Expression, % of positive control [1, 4]",Compound Selectivity [2],"SOX17 expression, GDF growth factor substituting for activin A ([3]; 100 ng/ml GDF, alone or with Wnt3a, Compound 34 or Compound 56, four days)","SOX17 expression, reagent alone ([3]; 20 ng/ml Wnt3a or 2.5 μM compound alone, four days)"
"CN1CCC(NC(=O)c2ccc(Nc3nccc(N4CCN(C)c5ccccc54)n3)cc2)CC1 [Compound 11, 4-{[4-(4-Methyl-3,4-dihydroquinoxalin-1(2H)-yl)pyrimidin-2-yl]amino}-N-(1-methylpiperidin-4-yl)benzamide]",565,−1.1E+06,3.9 % of positive control,−0.5 % of positive control,210,−4.9E+05,1.4 % of positive control,−0.2 % of positive control,Selective for CDK,,
"CN(C)CCNC(=O)c1ccc(-c2cnc3ccc(NCc4cccc(Cl)c4)nn23)cc1 [Compound 57, 4-(6-{[(3-Chlorophenyl)methyl]amino}imidazo[1,2-b]pyridazin-3-yl)-N-[2-(dimethylamino)ethyl]benzamide]",1222,−7.1E+05,8.4 % of positive control,−0.3 % of positive control,2110,1.1E+07,14.6 % of positive control,4.8 % of positive control,Selective for Trk,,
"N#Cc1cnc2nc1Nc1cccc(c1)OCCNC(=O)c1cccc(c1)N2 [Compound 41, 18-Oxo-14-oxa-2,4,8,17,25-pentaazatetracyclo[17.3.1.1˜3,7˜0.1˜9,13˜]pentacosa-1(23), 3(25), 4,6,9(24), 10,12,19,21-nonaene-6-carbonitrile]",9995,5.9E+04,69.0 % of positive control,0.0 % of positive control,4455,3.4E+07,30.8 % of positive control,14.8 % of positive control,Selective for GSK,,
"O=C1COc2cccc(c2)Nc2nccc(n2)Nc2cccc(c2)OCCCN1 [Compound 42, 14,21-Dioxa-2,4,8,18,28-pentaazatetracyclo[20.3.1.1˜3,7˜0.1˜9,13˜]octacosa-1(26), 3(28), 4,6,9(27), 10,12,22,24-nonaen-19-one]",8700,−2.4E+05,60.1 % of positive control,−0.1 % of positive control,5686,4.9E+07,39.3 % of positive control,21.2 % of positive control,Selective for CDK,,
"GDF-3: member of the GDF family of proteins (PeproTech) (protein, UniProt Q9NR23 251-364, looked up) Growth/differentiation factor …: AAIPVPKLSCKNLCHRHQLFINFRDLGWHKWIIAPKGFMANYCHGECPFSLTISLNSSNYAFMQALMHAVDPEIPQAVCIPTKLSPISMLYQDNNDNVILRHYEDMVVDECGCG",,,,,,,,,,induced weak expression of SOX17,
"Wnt3a: Wnt3a recombinant protein (R&D Systems) (protein, UniProt P56704 19-352, looked up) Protein Wnt-3a: SYPIWWSLAVGPQYSSLGSQPILCASIPGLVPKQLRFCRNYVEIMPSVAEGIKIGIQECQHQFRGRRWNCTTVHDSLAIFGPVLDKATRESAFVHAIASAGVAFAVTRSCAEGTAAICGCSSRHQGSPGKGWKWGGCSEDIEFGGMVSREFADARENRPDARSAMNRHNNEAGRQAIASHMHLKCKCHGLSGSCEVKTCWWSQPDFRAIGDFLKDKYDSASEMVVEKHRESRGWVETLRPRYTYFKVPTERDLVYYEASPNFCEPNPETGSFGTRDRTCNVSSHGIDGCDLLCCGRGHNARAERRREKCRCVFHWCCYVSCQECTRVYDVHTCK",,,,,,,,,,,failed to induce SOX17 expression
